Series [1] concerns BR DEN2 01-01 infection of Huh-7.5. In words: assay validation with reference compounds, 10-pt DRC of percent infection. The conditions noted are these: percent infection normalized against DENV2-infected Huh-7.5, M.O.I. 0.5, read-out: IC50. It is filed as cell-based, Dengue virus. The method, then: (§1) An immunofluorescence assay (IFA) used to detect dengue infection was optimized for the dengue HT/HCA. Briefly, cells were fixed with 4% (w/v) paraformaldehyde (PFA) for 20 min at room temperature (Rm T). PFA-fixed cells were treated with 0.25% (v/v) Triton-X for 20 min at Rm T. DENV-infected cells were detected by probing with 4G2 mAb prepared in blocking buffer: DPBS containing 5% FBS for 30 min at 37°C, followed by AlexaFluor-conjugated goat anti-mouse IgG (H+L) (Invitrogen Molecular Probes, USA) prepared in blocking buffer for 30 min at 37°C. Cell nuclei counterstained with 5 µg/mL 4′,6-diamidino-2-phenylindole (DAPI, Sigma-Aldrich, USA). Two washing cycles of DPBS was done after each step of the IFA. After the final washing, digital images were acquired using a high-throughput confocal fluorescence imaging system (Evotec Technologies High-Throughput Cell Analyzer Opera, Perkin Elmer, USA). The digital images were taken from 3 different fields of each well at 20× magnification.
(§2) Acquired images were analyzed using our in-house developed image-mining platform (IM). This platform is designed to do high-content screening and directly access the database of images that were sequentially analyzed with specially designed algorithms developed as a customized plug-in to the IM platform. The results of all the analyses were stored in a centralized database. […] One channel (DAPI-channel) captures the signal emitted by DAPI-stained nuclei at 450 nm, while the other channel (A488-channel) captures the signal emitted by the AlexaFluor 488 dye bound to the dengue E protein-antibody complexes confined in the cytoplasm of dengue-infected cells at 540 nm. To define the percentage of dengue-infected cells and, conversely the non-infected cells, a modified watershed method was applied. Compared to the original watershed algorithm that uses the morphological gradient image, a weighted gradient image is used for the topographic surface, whose weights are defined as the ridge values computed from the eigen values of the original image. The percentage of non-infected cells, which is also defined as the percent inhibition or percent activity, is derived by using the formula: [1−(A488-positive cells/total cells)]×100%.
(§3) In both validation experiments, Huh-7.5 was mixed with DENV1, DENV2, DENV3 or DENV4 at a M.O.I. of 0.5 or VM only for MOCK-infection and dispensed in designated wells using the Thermo Scientific WellMate automated liquid dispenser. For the first validation experiment, the statistical reliability of the dengue HT/HCA was determined by calculating the Z'-factor for the percent infection or percent inhibition. Briefly, the Z'-factor of a defined parameter is calculated using the formula: 1−[(3σp+3σn)/(|μp−μn|)], where the μp, μn, σp and σn are the means (μ) and standard deviations (σ) of the positive (p) and negative (n) controls. For the second validation experiment, the reference compounds were prepared in 2-fold serial dilutions and dispensed in duplicate wells in the 384-well plate, followed by the Huh-7.5 and DENV mixture (M.O.I. 0.5). Percent infection, percent inhibition, and percent cell number were determined using the customized IM platform plug-in. Scatter-plot distribution was generated using TIBCO Spotfire 4.5.0 (TIBCO Software Inc., Somerville, MA). The ten-point dose-response curves (10-pt DRCs) were plotted using the non-linear regression formula: log (inhibitor) vs. response – variable slope (4 parameters), available in GraphPad Prism 5.04 (GraphPad Software Inc., San Diego, CA). The top and bottom values of the reference compounds were unconstrained when the curve fittings of the 10-pt. DRCs were generated.

In a further series the test system is Huh-7.5. Description: assay validation with reference compounds, percent cell number in DENV2-infected Huh-7.5. As to conditions: percent cell number normalized against MOCK-infected Huh-7.5, DENV2-infected cells. The method, then: (§4) Acquired images were analyzed using our in-house developed image-mining platform (IM). This platform is designed to do high-content screening and directly access the database of images that were sequentially analyzed with specially designed algorithms developed as a customized plug-in to the IM platform. The results of all the analyses were stored in a centralized database. […] To define the percentage of dengue-infected cells and, conversely the non-infected cells, a modified watershed method was applied. Compared to the original watershed algorithm that uses the morphological gradient image, a weighted gradient image is used for the topographic surface, whose weights are defined as the ridge values computed from the eigen values of the original image. The percentage of non-infected cells, which is also defined as the percent inhibition or percent activity, is derived by using the formula: [1−(A488-positive cells/total cells)]×100%.
as §3, with “The ten-point dose-response curves (10-pt DRCs) were plotted using the non-linear regression formula: log (inhibitor) vs. response – variable slope (4 parameters), available in GraphPad Prism 5.04 (GraphPad Software Inc., San Diego, CA).” left out
(§5) Similarly, the percent cell number was normalized based on the measured cell number in MOCK-infected (100% cell number) controls according to the formula: % cell number = (Cmeasured/μCMOCK-infect)×100%, where Cmeasured is the measured cell number in the test well and μCMOCK-infect is the average cell number in the MOCK-infected controls. The statistical validity of the dengue high-throughput screening was determined by calculating for the Z'-factor using the 0.5% DMSO-treatment and MOCK-infected Huh-7.5 as negative and positive controls, respectively. In addition, other parameters, including DRC of a reference compound, were used to evaluate the assay performance.

For series [2], the system named is DENV1 (Den1 BR/90) infection in Huh-7.5. Description: image-based dengue HT/HCA, 10-pt dose-response hit confirmation, DENV1. Type of series: cell-based. The conditions noted are these: Dengue virus, read-out: EC50 DENV1. The method, then: as §1, §2
(§6) The BioFocus kinase inhibitor library were screened against DENV1, DEN2, DENV3 and DENV4 at 10 µM in 0.5% (v/v) DMSO. MOCK-infected Huh-7.5 and IFN-α2A (500 U/mL) were used as positive controls, and the 0.5% DMSO vehicle was used as negative control. Four sets of 15 384-well plates (13 plates designated for test compounds and 2 plates designated for DMSO vehicle control) were used for the primary screening of the BioFocus kinase inhibitor library against each dengue serotype. Each of the 4,000 compounds in the library was tested in single wells. For data normalization and quality control of the screening, each test compound plate contained 16 replicates of the positive and negative controls. After dispensing the test compounds IFN-α2A and DMSO vehicle in the 384-well plates, Huh-7.5 was mixed with DENV1, DENV2, DENV3, or DENV4 to achieve a M.O.I. of 0.5 and dispensed at 5×10^3 cells/well using the Thermo Scientific WellMate automated liquid dispenser. For the MOCK-infected Huh-7.5, the cells were mixed with VM and dispensed under the same conditions as previously stated. Virus infection in the presence of the compounds proceeded at 37°C, 5% CO2 for 96 hrs. Compound activity based on percent inhibition and cell toxicity was assessed by IFA and IM analysis as described above. Scatter-plot distribution of the entire screening was generated using TIBCO Spotfire 4.5.0 (TIBCO Software Inc., Somerville, MA).
(§7) The calculated activity was normalized to a percent inhibition (PI) based on the MOCK-infected cells (100% activity, or zero infection) and dengue-infected cells (0% activity, or maximum measured infection percentage) controls according to the formula: [drawing 1] where: PImeasured - percent inhibition of test compound […]

In series [3] the test system is DENV3 (BR DEN3 290-02) infection in Huh-7.5. Description: image-based dengue HT/HCA, 10-pt dose-response hit confirmation, DENV3. Type of series: cell-based. The conditions noted are these: Dengue virus, DENV3, Huh7.5; Huh-7.5, M.O.I. 0.5, 96 hrs; read-out: EC50 DENV3. The method, then: as §1, §2, §6, §7
The subject of series [4] is DENV2 (BR DEN2 01-01) infection in Huh-7.5. Description: image-based dengue HT/HCA, 10-pt dose-response hit confirmation, DENV2. Type of series: cell-based. As to conditions: Dengue virus, DENV2, Huh7.5; Huh-7.5, M.O.I. 0.5, 96 hrs; read-out: EC50 DENV2. The method, then:
as §1, §2, §6, §7

A short description of series [5]: compound toxicity, resazurin reduction assay in uninfected Huh-7.5. The conditions noted are these: human, uninfected Huh-7.5 cells, Huh-7.5 without viral infection, 10-pt DRC. It is filed as cell-based. The method, then: The hits identified from the primary screening were also tested at 10 µM against CHIKV-118-GFP infection in HuH-7 cells and evaluated by resazurin reduction assay (RRA). Resazurin (7-Hydroxy-3H-phenoxazin-3-one 10-oxide) is reduced to the red fluorescent resorufin by redox enzymes produced by viable cells, and is a good indication of metabolic capacity, and by extension cell viability. The amount of converted resorufin was measured as relative fluorescence readout (RFU) at excitation/emission of 531/572 nm using a fluorescence spectrophotometer (Victor^3 V Spectrophotometer, Perkin Elmer, USA). Briefly, cells were inoculated with CHIKV-118-GFP at an M.O.I. of 0.5 and seeded in 384-well plates containing reference and primary hit compounds and incubated under humidified conditions for 72 hrs at 37°C. Resazurin solution was added to a final concentration of 10 µM and further incubated for another 12 hrs prior to measurement of RFU. The percent activity of the compounds, reflected by the percent cell viability, was quantified by normalizing against the RFUs of MOCK-infected cells and CHIKV-118-GFP-infected cells. Compounds resulting in normalized RFU ≥70% were considered as positive hits for anti-CHIKV activity.
To confirm the compound activity against dengue viruses, the selected hits from the primary screening were tested in a 10-pt. DRC (2-fold serial dilution from 50 µM) using the same assay described for the dengue HT/HCA. Each concentration of the hit compounds was tested in duplicate wells. Data generated from image analysis of the 10-pt. DRC was plotted and analyzed using the non-linear regression formula: log (inhibitor) vs. response – […] (4 parameters) in GraphPad Prism 5.04. […] Compound toxicity was determined by testing the hit compounds in a 10-pt. DRC against Huh-7.5 in the absence of viral infection and measuring the cell viability using resazurin reduction assay as described above. […] Confirmed hits were selected based on their Selectivity Index (SI), a dimensionless value that indicates the magnitude between cytotoxic concentration and effective concentration, and is calculated as: SI = CC50/EC50.
In general terms: The colour change of resazurin is a common sign of viable cells or microbes.

For series [6], the system named is DENV4 (DEN4 TVP-360) infection in Huh-7.5. In words: image-based dengue HT/HCA, 10-pt dose-response hit confirmation, DENV4. Type of series: cell-based. As to conditions: Dengue virus, DENV4, Huh7.5; Huh-7.5, M.O.I. 0.5, 96 hrs; read-out: EC50 DENV4. The method, then: as §1, §2, §6, §7
Series [7] deals with DENV1, DENV2, DENV3 and DENV4 infection in Huh-7.5. Description: image-based dengue HT/HCA, all four serotypes (primary screening and overall activity). Type of series: cell-based, Dengue virus. The method, then: as §1
Acquired images were analyzed using our in-house developed image-mining platform (IM). This platform is designed to do high-content screening and directly access the database of images that were sequentially analyzed with specially designed algorithms developed as a customized plug-in to the IM platform. The results of all the analyses were stored in a centralized database. […]
The BioFocus kinase inhibitor library were screened against DENV1, DEN2, DENV3 and DENV4 at 10 µM in 0.5% (v/v) DMSO. […] Compound activity based on percent inhibition and cell toxicity was assessed by IFA and IM analysis as described above. […]
as §7

The nature of the next series: in vitro. The conditions noted are these: human. The method, then:
as §4
as §3, with “The ten-point dose-response curves (10-pt DRCs) were plotted using the non-linear regression formula: log (inhibitor) vs. response – variable slope (4 parameters), available in GraphPad Prism 5.04 (GraphPad Software Inc., San Diego, CA).” left out
as §5

The values below come from publication PMC3578765 (PLoS Neglected Tropical Diseases, 2013).

Molecules are shown by their SMILES. Read-outs that look alike come from different tables or passages of the source.

For orientation: IC50 means the point on the concentration scale where inhibition reaches its midpoint. On to `CCN(CC)CC1CCN(c2ncc3ncnc(Nc4ccc(F)c(Cl)c4)c3n2)CC1` [BIBU 1361], for which the IC50 in [1] is 4.34 µM. Also, the CC50 in the series on Huh-7.5 is 4.5 µM.
One may read the EC50 as the concentration at which the effect is half-maximal. As for `COc1ccc(CC(N)c2csc(Nc3ncccn3)n2)cc1` (centres unmarked) [CND1201], the EC50 in series [2] (DENV1, Huh7.5, Huh-7.5, M.O.I. 0.5, 96 hrs) came to 0.9 µM; in series [3] it was 2.6 µM; in [4], 7.6 µM; in [6], 5 µM. In series [5], this compound gave a CC50 at 72 h greater than 100 µM. The “antiviral activity against all four dengue serotypes” value in [7] is listed as “strong antiviral activities against all four dengue serotypes”.
As to `Nc1ccc(CC(N)c2csc(Nc3ncccn3)n2)cc1` (centres unmarked) [CND1243], the EC50 amounted to 4.1 µM in series [2] (Huh7.5, 96 h); 1 µM in series [3]; 6.2 µM in [4]; 7.2 µM in series [6]. The same compound showed a CC50 at 72 h in [5] greater than 100 µM. Also, in [7], the “antiviral activity against all four dengue serotypes” value is “strong antiviral activities against all four dengue serotypes”.
For the compound `CN1c2cc3c(cc2N=C(c2ccc(C(=O)O)cc2)c2ccccc21)C(C)(C)CCC3(C)C` [LE 135], the IC50 in series [1] stood at 11.7 µM. In addition, in the series with Huh-7.5, the CC50 is 23.9 µM.
The like results for `Cc1c(-c2ccc(O)cc2)nn(-c2ccc(O)cc2)c1-c1ccc(OCCN2CCCCC2)cc1` [MPP] were, in that order, 6.85 µM and 5.86 µM.
Take `NC(=O)c1ncn([C@@H]2O[C@H](CO)[C@@H](O)[C@H]2O)n1` [Ribavirin]: the IC50 in series [1] (Dengue virus, Huh7.5) stood at 42.4 µM. Besides, the CC50 in the series “in vitro” turned out to be 50.4 µM.
